# Reference: patent US9999613B2, “2H-chromene derivatives as analgesic agents” (OBSHESTVO S OGRANICHENNOI OTVETSVENNOSTJU “LEOFORS”, priority 2014, dated 2018)
# Marks after values point to notes of the source that are not given here.
# Key:
# [1] = known drugs, data from ref. [2]; cited from earlier work
# outbred mice [2] = experiment: acetic acid induced writhing test (visceral pain model); type: in vivo
# Experimental: (§1) Analgesic activity of compounds of general formula 1 was studied in the model of visceral pain <<acetic acid induced writhing test>> and thermal irritation test <<hot plate>> in white outbred mice of body mass 20-22 g in groups of 8 animals each after single administration in 1÷20 mg/kg doses.
# Acetic acid induced writhing test was performed by intraperitoneal administration of 0.1 ml of 0.75% acetic acid to an animal. Activity was assessed by the quantity of writhing movements during 3 min.
# Tests were carried out in outbred male mice with body mass 22-25 g. Experimental groups were formed, with 8 animals in each. <<Acetic writhes>> were produced by intraperitoneal administration of 0.75% acetic acid, 0.1 ml per animal. Test compounds were administered once intragastrically an hour before acetic acid administration. Animals that received only acetic acid were used as control. Activity was assessed by the quantity of writhes during 3 min.
# outbred mice [3] = experiment: hot plate test (thermal irritation); type: in vivo
# Experimental: as §1
# Hot plate test characterizes thermal stimulus. The animals were placed on a copper plate, T=54° C. The effect was assessed by the duration of stay of the animal on the hot plate before the first vocalization.
# Tests were carried out in outbred male mice of body mass 22-25 g. Experimental groups were formed, with 8 animals in each. The animals were placed on a copper hot plate, T=54° C. The effects were assessed by the duration of animal stay on the hot plate before the first <>, in seconds.
# Test compounds were administered once intragastrically an hour before the test. Control animals received the corresponding solvent.
# outbred mice [4] = experiment: acetic acid induced writhing test (visceral pain model); type: in vivo; settings: 0.5 mg/kg, intragastric
# outbred mice [5] = experiment: hot plate test (thermal irritation); type: in vivo; settings: 0.5 mg/kg, intragastric
# white outbred mice = experiment: acute toxicity, single intragastric administration, Kerber method
# [6] = known drugs, data from ref. [2]; cited from earlier work; remark: listed apart in the source
# [7] = 1 mg/kg dose, compared with sodium diclofenac 10 mg/kg
# [8] = 10 mg/kg, intragastric, (control − exp)/control · 100%
# [9] = 10 mg/kg, once intragastrically 1 h before 0.75% acetic acid i.p., writhes during 3 min
# [10] = 10 mg/kg, intragastric, (exp − control)/control · 100%
# [11] = 10 mg/kg, once intragastrically 1 h before test, plate 54° C, time to first vocalization
smiles,measurement,setting,value
CC(=O)Oc1ccccc1C(=O)O [Acetylsalicylic acid],ED50 in acetic acid induced writhing test,[1],155 mg/kg
"CC1CCC2C(C1)OC(c1cccs1)CC2(C)O (stereo not shown) [Compound 1a, 4,7-dimethyl-2-(thiophene-2-yl)octahydro-2H-chromene-4-ol]",analgesic activity in acetic acid induced writhing test (in words),outbred mice [2]; [7],potent analgesic activity
same,"Pain reduction, %","outbred mice [2]; 1 mg/kg, intragastric",71%
same,"Writhes, quantity (Agent)","outbred mice [2]; 1 mg/kg, intragastric",2.4 ± 0.8
same,"Pain reduction, %","outbred mice [2]; 5 mg/kg, intragastric",42%
same,"Writhes, quantity (Agent)","outbred mice [2]; 5 mg/kg, intragastric",4.9 ± 1.0
same,analgesic activity in acetic acid induced writhing test (in words),outbred mice [2]; 10 mg/kg dose,more effective than sodium diclofenac
same,"Pain reduction, %",outbred mice [2]; [8],55%
same,"Writhes, quantity (Agent)",outbred mice [2]; [9],4.3 ± 1.1
same,"Pain reduction, %","outbred mice [2]; 20 mg/kg, intragastric",25%
same,"Writhes, quantity (Agent)","outbred mice [2]; 20 mg/kg, intragastric",8.3 ± 0.5
same,analgesic activity in hot plate test (in words),outbred mice [3]; [7],potent analgesic activity
same,"Hot plate, sec. (Agent)","outbred mice [3]; 1 mg/kg, intragastric",16.5 ± 1.9 s
same,"Protection, %","outbred mice [3]; 1 mg/kg, intragastric",59%
same,"Hot plate, sec. (Agent)","outbred mice [3]; 5 mg/kg, intragastric",16.3 ± 1.6 s
same,"Protection, %","outbred mice [3]; 5 mg/kg, intragastric",57%
same,analgesic activity in hot plate test (in words),outbred mice [3]; 10 mg/kg dose,Reliable analgesic activity
same,"Protection, %",outbred mice [3]; [10],34%
same,"Hot plate, sec. (Agent)",outbred mice [3]; [11],13.1 ± 1.2 s
same,"Hot plate, sec. (Agent)","outbred mice [3]; 20 mg/kg, intragastric",16.0 ± 2.6 s
same,"Protection, %","outbred mice [3]; 20 mg/kg, intragastric",50%
same,"Pain reduction, %",outbred mice [4],27%
same,"Writhes, quantity (Agent)",outbred mice [4],7.4 ± 1.3
same,"Hot plate, sec. (Agent)",outbred mice [5],20.3 ± 2.2 s
same,"Protection, %",outbred mice [5],28%
same,acute toxicity classification (in words),white outbred mice,moderately toxic
"Cc1ccsc1C1CC(C)(O)C2CCC(C)CC2O1 (stereo not shown) [Compound 1b, 4,7-dimethyl-2-(3-methylthiophene-2-yl)octahydro-2H-chromene-4-ol]","Pain reduction, %",outbred mice [2]; [8],36*** %
same,"Writhes, quantity (Agent)",outbred mice [2]; [9],7.0 ± 0.6
same,"Hot plate, sec. (Agent)",outbred mice [3]; [11],12.8 ± 1.7 s
"Cc1ccc(C2CC(C)(O)C3CCC(C)CC3O2)s1 (stereo not shown) [Compound 1c, 4,7-dimethyl-2-(5-methylthiophene-2-yl)octahydro-2H-chromene-4-ol]","Pain reduction, %",outbred mice [2]; [8],39*** %
same,"Writhes, quantity (Agent)",outbred mice [2]; [9],6.6 ± 0.5
same,"Hot plate, sec. (Agent)",outbred mice [3]; [11],17.4 ± 2.4 s
"CC1CCC2C(C1)OC(c1cc(Br)cs1)CC2(C)O (stereo not shown) [Compound 1d, 4,7-dimethyl-2-(4-bromothiophene-2-yl)octahydro-2H-chromene-4-ol]",analgesic activity in acetic acid induced writhing test (in words),outbred mice [2]; 10 mg/kg dose,more effective than sodium diclofenac
same,"Pain reduction, %",outbred mice [2]; [8],63** %
same,"Writhes, quantity (Agent)",outbred mice [2]; [9],3.6 ± 1.5
same,"Protection, %",outbred mice [3]; [10],39%
same,"Hot plate, sec. (Agent)",outbred mice [3]; [11],13.6 ± 1.7 s
"CC1CCC2C(C1)OC(c1ccc(Br)s1)CC2(C)O (stereo not shown) [Compound 1e, 4,7-dimethyl-2-(5-bromothiophene-2-yl)octahydro-2H-chromene-4-ol]","Pain reduction, %",outbred mice [2]; [8],34* %
same,"Writhes, quantity (Agent)",outbred mice [2]; [9],6.3 ± 1.2
same,"Protection, %",outbred mice [3]; [10],18%
same,"Hot plate, sec. (Agent)",outbred mice [3]; [11],11.6 ± 1.0 s
"CC1CCC2C(C1)OC(c1ccc([N+](=O)[O-])s1)CC2(C)O (stereo not shown) [Compound 1f, 4,7-dimethyl-2-(5-nitrothiophene-2-yl)octahydro-2H-chromene-4-ol]","Pain reduction, %",outbred mice [2]; [8],32* %
same,"Writhes, quantity (Agent)",outbred mice [2]; [9],7.5 ± 1.2
same,"Protection, %",outbred mice [3]; [10],20%
same,"Hot plate, sec. (Agent)",outbred mice [3]; [11],14.5 ± 1.6 s
Cc1c(N(C)CS(=O)(=O)O)c(=O)n(-c2ccccc2)n1C [Metamizole],ED50 in acetic acid induced writhing test,[1],55 mg/kg
same,LD50 (acute toxicity),[6],3300 mg/kg
"O=C(O)Cc1ccccc1Nc1c(Cl)cccc1Cl [Sodium diclofenac, reference compound]","Pain reduction, %",outbred mice [2]; [8],50*** %
same,"Writhes, quantity (Agent)",outbred mice [2]; [9],5.0 ± 1.1
same,"Protection, %",outbred mice [3]; [10],62** %
same,"Hot plate, sec. (Agent)",outbred mice [3]; [11],15.6 ± 2.4 s
same,ED50 in acetic acid induced writhing test,[1],5 mg/kg
